Test results as given in patent EP4813403A1, “USE OF GLP-1R/GIPR DOUBLE-TARGET AGONIST IN PREPARING ANIMAL DRUG” (Hangzhou Zhongmeihuadong Pharmaceutical Co., Ltd., priority 2023, dated 2025).

Tests used:
dog GLP-1R = molecular target: T1, dog GLP-1R (Canis lupus familiaris, UniProt A0A8I3NUR9); assay: Agonistic activity on GLP-1R of different species (LANCE Ultra cAMP assay): dog; type: cell-based; conditions: ratio of EC50 value of other species to human EC50 value
T1 construct: expressed in transfected cells
T1 sequence (A0A8I3NUR9 1-464): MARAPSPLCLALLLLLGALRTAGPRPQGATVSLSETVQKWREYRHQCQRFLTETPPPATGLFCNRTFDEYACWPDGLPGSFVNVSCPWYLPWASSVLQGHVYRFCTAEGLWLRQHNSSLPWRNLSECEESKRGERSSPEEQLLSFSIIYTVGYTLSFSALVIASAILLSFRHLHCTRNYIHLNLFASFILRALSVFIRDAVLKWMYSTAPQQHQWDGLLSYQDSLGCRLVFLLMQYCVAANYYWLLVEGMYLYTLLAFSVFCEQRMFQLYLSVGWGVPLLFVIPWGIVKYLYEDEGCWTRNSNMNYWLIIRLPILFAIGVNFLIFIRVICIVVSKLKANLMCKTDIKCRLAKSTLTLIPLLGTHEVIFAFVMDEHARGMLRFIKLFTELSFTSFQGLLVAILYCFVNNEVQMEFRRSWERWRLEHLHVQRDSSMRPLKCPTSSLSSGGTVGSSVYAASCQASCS
Procedure: The in vitro agonistic activity of the compound of the present invention on GLP-1R was measured in cells stably expressing human, dog, mouse, rat, rabbit, and monkey GLP-1R (human GLP-1R-HEK, dog GLP-1R-HEK, mouse GLP-1R-HEK, rat GLP-1R- in HEK, rabbit GLP-1R-CHO, monkey GLP-1R-HEK cells). Human GLP-1R-HEK, dog GLP-1R-HEK, mouse GLP-1R-HEK, rat GLP-1R-HEK, rabbit GLP-1R-CHO, and monkey GLP-1R-HEK cells were resuspended in 1×Casein Stimulation Buffer (HBSS, 5 mM HEPES, 0.5 mM IBMX, 0.1% casein, pH7.4), and seeded into a 384-well cell culture plate at 9 µL/well (cell numbers being 1000, 1000, 1000, 1500, 1000, 1000 cells/well, respectively). 1 µL of 1×Casein Stimulation Buffer containing 10× compound was added to the above-mentioned 384-well cell culture plate. The plate was incubated at 37 °C for 30 minutes. After the incubation was completed, 5 µL of Eu-cAMP working solution and 5 µL of Ulight^TM-cAMP working solution were added sequentially, centrifuged and then incubated at room temperature for 1 hour. The readings at 665 nm and 620 nm were determined with a 330 nm excitation light on a microplate reader. The 665 nm/620 nm reading ratio was calculated. […] GraphPad was used to perform nonlinear regression according to the response percentage and the concentration of the compound added to obtain the EC50 value for each compound.

rabbit GIPR = molecular target: T2, rabbit GIPR (Oryctolagus cuniculus, UniProt G1T265); assay: Agonistic activity on GIPR of different species (LANCE Ultra cAMP assay): rabbit; type: cell-based; conditions: ratio of EC50 value of other species to human EC50 value
T2 construct: expressed in transfected cells; host or cells: CHO-K1 (transient)
T2 sequence (G1T265 23-468): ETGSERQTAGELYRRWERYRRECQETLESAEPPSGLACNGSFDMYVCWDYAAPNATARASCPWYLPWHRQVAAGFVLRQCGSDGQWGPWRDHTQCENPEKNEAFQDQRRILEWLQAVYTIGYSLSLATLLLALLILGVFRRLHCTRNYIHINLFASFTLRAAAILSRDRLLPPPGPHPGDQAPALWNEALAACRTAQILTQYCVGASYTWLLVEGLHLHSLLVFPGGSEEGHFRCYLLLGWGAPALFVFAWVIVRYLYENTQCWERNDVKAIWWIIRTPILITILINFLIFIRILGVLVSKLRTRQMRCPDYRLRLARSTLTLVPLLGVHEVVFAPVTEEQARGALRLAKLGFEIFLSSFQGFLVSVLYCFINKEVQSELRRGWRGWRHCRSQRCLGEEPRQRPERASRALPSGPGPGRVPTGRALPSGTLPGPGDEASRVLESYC
Procedure: CHO-K1 cells were seeded in a 6-well plate at 0.6×10^6 cells/well and incubated overnight in an incubator at a temperature of 37 °C and a carbon dioxide concentration of 5%. The next day, CHO-K1 cell media were replaced. Then two tubes A and B were prepared for each plasmid. 100 µL Opti-MEM was added to tube A, then 4 µL Lipofectamine™ 3000 was added and mixed uniformly. 100 µL Opti-MEM was firstly added to tube B, then 2 µg of one of the plasmids (human GIPR-pcDNA5 (+) plasmid, dog GIPR-pcDNA5 (+) plasmid, mouse GIPR-pcDNA5 (+) plasmid, rat GIPR-pcDNA5 (+) plasmid, rabbit GIPR-pcDNA5 (+) plasmid, monkey GIPR-pcDNA5 (+) plasmid) was added and mixed uniformly, and 4 µL P3000™ was added to tube B and mixed uniformly (the ratio of plasmid to transfection reagent was 1 µg: 2 µL). […]
18-20 hours after transfection, human GIPR-CHO, dog GIPR-CHO, mouse GIPR-CHO, rat GIPR-CHO, rabbit GIPR-CHO, and monkey GIPR-CHO cells were resuspended in 1×Casein Stimulation Buffer (HBSS, 5 mM HEPES, 0.5 mM IBMX, 0.1% casein, pH7.4), and seeded into a 384-well cell culture plate at 9 µL/well (cell numbers being 1000, 2000, 2000, 2000, 2000, 2000 cells/well, respectively). […] The readings at 665 nm and 620 nm were determined with a 330 nm excitation light on a microplate reader. The 665 nm/620 nm reading ratio was calculated. […]

CC[C@H](C)[C@H](NC(=O)C(C)(C)NC(=O)[C@H](Cc1ccc(O)cc1)NC(=O)[C@H](CC(=O)O)NC(=O)[C@H](CO)NC(=O)[C@@H](NC(=O)C(C)(Cc1ccccc1)NC(=O)[C@@H](NC(=O)CNC(=O)[C@H](CCC(=O)O)NC(=O)C(C)(C)NC(=O)[C@@H](N)Cc1ccc(O)cc1)[C@@H](C)O)[C@@H](C)O)C(=O)NC(C)(C)C(=O)N[C@@H](CC(C)C)C(=O)N[C@@H](CC(=O)O)C(=O)N[C@@H](CCCCN)C(=O)N[C@@H](CCC(N)=O)C(=O)N[C@@H](C)C(=O)N[C@@H](CCC(N)=O)C(=O)N[C@@H](C)C(=O)N[C@@H](CCC(=O)O)C(=O)N[C@@H](Cc1ccccc1)C(=O)N[C@H](C(=O)N[C@@H](CCCCNC(=O)COCCOCCNC(=O)COCCOCCNC(=O)COCCOCCNC(=O)CC[C@H](NC(=O)CCCCCCCCCCCCCCCCCCCCC(=O)O)C(=O)O)C(=O)N[C@@H](Cc1c[nH]c2ccccc12)C(=O)N[C@@H](CC(C)C)C(=O)N[C@@H](CC(C)C)C(=O)N[C@@H](CCCCN)C(=O)NCC(=O)NCC(=O)N1CCC[C@H]1C(=O)N[C@@H](CO)C(=O)N[C@@H](CO)C(=O)NCC(=O)N[C@@H](C)C(=O)N1CCC[C@H]1C(=O)N1CCC[C@H]1C(=O)N1CCC[C@H]1C(=O)N[C@@H](CO)C(=O)N[C@@H](CCCCN)C(N)=O)C(C)C (some centres unmarked) [Compound P016]
GLP-1R EC50 ratio (dog GLP-1R): 4.52
GIPR EC50 ratio (rabbit GIPR): 5.34
